Converted amounts (≈) assume the structure as drawn. The source made the active and inactive calls. The rule behind the calls is not given here.
Experiments:
Saccharomyces cerevisiae [1] = test: Antifungal activity against Saccharomyces cerevisiae ATCC 24657 assessed as growth inhibition after 24 to 48 hrs by agar plate bioassay; format: functional
Candida albicans [2] = test: Antifungal activity against Candida albicans ATCC 32032 assessed as growth inhibition after 24 to 48 hrs by agar plate bioassay; format: functional
Cytochrome P450 2D6 = Cytochrome P450 2D6 (Homo sapiens, UniProt P10635); test: Inhibition of human recombinant CYP2D6; format: ADME
Cytochrome P450 2C9 = Cytochrome P450 2C9 (Homo sapiens, UniProt P11712); test: Inhibition of human recombinant CYP2C9; format: ADME
Cytochrome P450 2C19 = Cytochrome P450 2C19 (Homo sapiens, UniProt P33261); test: Inhibition of human recombinant CYP2C19; format: ADME
Cytochrome P450 1A2 = molecular target: T1, Cytochrome P450 1A2 (Homo sapiens, UniProt P05177); test: Inhibition of human recombinant CYP1A2; format: ADME
T1 sequence (P05177 whole entry): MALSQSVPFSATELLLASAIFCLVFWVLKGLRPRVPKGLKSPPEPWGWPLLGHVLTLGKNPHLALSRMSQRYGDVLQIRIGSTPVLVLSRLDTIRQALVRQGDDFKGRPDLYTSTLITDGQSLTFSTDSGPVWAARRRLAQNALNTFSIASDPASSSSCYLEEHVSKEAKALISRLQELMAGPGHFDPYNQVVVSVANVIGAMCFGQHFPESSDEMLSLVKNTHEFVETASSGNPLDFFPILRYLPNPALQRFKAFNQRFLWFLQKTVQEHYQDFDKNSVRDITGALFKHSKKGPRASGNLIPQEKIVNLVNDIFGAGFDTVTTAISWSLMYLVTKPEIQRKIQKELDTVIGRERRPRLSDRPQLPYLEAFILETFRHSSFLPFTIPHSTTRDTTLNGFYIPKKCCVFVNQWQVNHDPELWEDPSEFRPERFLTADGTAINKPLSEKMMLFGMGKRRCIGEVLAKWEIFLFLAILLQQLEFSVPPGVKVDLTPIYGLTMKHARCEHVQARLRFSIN

Cytochrome P450 3A4 = Cytochrome P450 3A4 (Homo sapiens, UniProt P08684); test: Inhibition of human recombinant CYP3A4; format: ADME
Saccharomyces cerevisiae [3] = test: Antifungal activity against Saccharomyces cerevisiae ATCC 24657 assessed as growth inhibition after 24 to 48 hrs by spectrophotometric bioassay; format: functional
Saccharomyces cerevisiae [4] = test: Fungistatic activity against Saccharomyces cerevisiae ATCC 24657 assessed as cell proliferation compound after 24 to 48 hrs by agar plate bioassay; format: functional, organism-based
Saccharomyces cerevisiae [5] = test: Fungistatic activity against Saccharomyces cerevisiae ATCC 24657 assessed as cell proliferation compound after 24 to 48 hrs by spectrophotometric bioassay; format: functional, organism-based
Candida albicans [6] = test: Antifungal activity against Candida albicans assessed as morphogenetic transformation after 3 hrs by phase-contrast microscopy; format: functional
Saccharomyces cerevisiae [7] = test: Fungistatic activity against Saccharomyces cerevisiae ATCC 24657 assessed as cell proliferation at 100 uM after 24 hrs by agar plate bioassay relative to control; format: functional; settings: ATCC 24657, 24 h
Saccharomyces cerevisiae [8] = test: Fungistatic activity against Saccharomyces cerevisiae ATCC 24657 assessed as cell proliferation at 100 uM after 24 hrs by spectrophotometric bioassay; format: functional, organism-based
Saccharomyces cerevisiae [9] = test: Fungistatic activity against Saccharomyces cerevisiae ATCC 24657 assessed as cell growth at 100 uM after 48 hrs by spectrophotometric bioassay; format: functional, organism-based
Saccharomyces cerevisiae [10] = test: Antifungal activity against Saccharomyces cerevisiae ATCC 24657 assessed as growth inhibition at 31.2 uM after 24 to 48 hrs by spectrophotometric bioassay; format: functional, organism-based
Saccharomyces cerevisiae [11] = test: Antifungal activity against Saccharomyces cerevisiae ATCC 24657 assessed as growth inhibition at 31.2 uM after 24 to 48 hrs by agar plate bioassay; format: functional, organism-based

Cytochrome P450 2C9, sequence (P11712 whole entry): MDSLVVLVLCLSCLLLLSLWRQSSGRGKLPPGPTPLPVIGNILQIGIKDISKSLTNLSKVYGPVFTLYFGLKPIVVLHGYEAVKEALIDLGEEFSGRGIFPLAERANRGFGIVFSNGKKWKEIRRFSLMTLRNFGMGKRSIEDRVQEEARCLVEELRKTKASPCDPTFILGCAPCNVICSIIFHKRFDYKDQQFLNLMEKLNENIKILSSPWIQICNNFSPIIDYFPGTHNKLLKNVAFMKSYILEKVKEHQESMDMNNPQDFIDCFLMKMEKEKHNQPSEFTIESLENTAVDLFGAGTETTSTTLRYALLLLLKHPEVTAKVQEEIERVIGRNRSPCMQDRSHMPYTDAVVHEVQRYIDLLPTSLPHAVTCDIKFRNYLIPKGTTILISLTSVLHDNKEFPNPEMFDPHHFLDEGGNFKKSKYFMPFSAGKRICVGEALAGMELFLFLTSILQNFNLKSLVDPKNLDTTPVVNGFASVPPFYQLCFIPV
Cytochrome P450 2C19, sequence (P33261 whole entry): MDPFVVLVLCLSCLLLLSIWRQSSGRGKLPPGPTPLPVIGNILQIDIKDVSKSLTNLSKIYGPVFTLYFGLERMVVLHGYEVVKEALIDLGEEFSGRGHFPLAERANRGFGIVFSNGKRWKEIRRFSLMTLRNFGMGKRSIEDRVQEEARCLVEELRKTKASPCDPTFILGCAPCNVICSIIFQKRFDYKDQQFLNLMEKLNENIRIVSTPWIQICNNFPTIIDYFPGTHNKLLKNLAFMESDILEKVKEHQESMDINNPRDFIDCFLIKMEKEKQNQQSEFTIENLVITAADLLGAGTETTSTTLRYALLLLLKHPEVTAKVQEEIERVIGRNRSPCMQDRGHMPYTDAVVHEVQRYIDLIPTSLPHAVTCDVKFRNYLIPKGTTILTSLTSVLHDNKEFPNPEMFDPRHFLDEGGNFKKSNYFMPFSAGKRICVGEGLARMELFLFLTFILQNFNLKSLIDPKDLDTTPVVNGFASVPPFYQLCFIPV
Cytochrome P450 2D6, sequence (P10635 whole entry): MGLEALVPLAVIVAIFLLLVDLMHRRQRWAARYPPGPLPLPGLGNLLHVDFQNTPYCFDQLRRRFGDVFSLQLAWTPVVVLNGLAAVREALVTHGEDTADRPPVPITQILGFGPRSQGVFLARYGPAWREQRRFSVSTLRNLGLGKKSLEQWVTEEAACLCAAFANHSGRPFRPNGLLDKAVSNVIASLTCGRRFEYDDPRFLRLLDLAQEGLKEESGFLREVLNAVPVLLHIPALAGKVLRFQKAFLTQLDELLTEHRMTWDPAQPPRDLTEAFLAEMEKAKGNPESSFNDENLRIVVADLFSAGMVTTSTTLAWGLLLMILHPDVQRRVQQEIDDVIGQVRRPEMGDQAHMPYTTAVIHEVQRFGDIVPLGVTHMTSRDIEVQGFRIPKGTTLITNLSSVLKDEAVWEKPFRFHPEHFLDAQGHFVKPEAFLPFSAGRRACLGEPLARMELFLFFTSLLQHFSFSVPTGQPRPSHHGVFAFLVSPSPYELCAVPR
Cytochrome P450 3A4, sequence (P08684 whole entry): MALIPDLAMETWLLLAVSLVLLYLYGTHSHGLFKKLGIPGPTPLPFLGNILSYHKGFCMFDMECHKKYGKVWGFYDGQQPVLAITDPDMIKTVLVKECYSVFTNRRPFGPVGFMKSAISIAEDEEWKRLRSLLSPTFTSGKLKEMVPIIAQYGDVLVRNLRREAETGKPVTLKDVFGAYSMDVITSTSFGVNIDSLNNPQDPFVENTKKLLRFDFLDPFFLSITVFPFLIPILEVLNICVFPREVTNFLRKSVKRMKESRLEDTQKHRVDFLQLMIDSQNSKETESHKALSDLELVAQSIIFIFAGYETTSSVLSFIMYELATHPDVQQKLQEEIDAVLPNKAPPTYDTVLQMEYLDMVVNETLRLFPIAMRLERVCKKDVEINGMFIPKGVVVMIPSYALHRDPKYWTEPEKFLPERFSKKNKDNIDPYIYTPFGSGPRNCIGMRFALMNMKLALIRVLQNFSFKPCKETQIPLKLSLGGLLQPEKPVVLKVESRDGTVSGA

Q: Which MIC (Saccharomyces cerevisiae [1]) does the source give for C=CCOc1ccc(/C=C2\CCc3cc(OC)ccc3C2=O)cc1 here?
A: The MIC was over 200 µM.

Q: For Cc1ccc(C(=O)N(C)Cc2ccco2)c(C2CCN(C(=O)/C=C/c3ccc4c(c3)OCO4)CC2)n1, which MIC (Saccharomyces cerevisiae [1]) is on record?
A: The MIC was over 200 µM.

Q: How did the MIC (Saccharomyces cerevisiae [1]) turn out when Cc1ccc(C(=O)N(C)Cc2ccco2)c(C2CCN(C(=O)c3cc(O)nc4ccccc34)CC2)n1 was run?
A: The MIC was over 200 µM.

Q: Which MIC (Candida albicans [2]) does the source give for COc1ccc(-c2sc(/N=C/c3ccc(-c4ccccc4)cc3)c(C#N)c2C)cc1OC here?
A: The MIC was 8 µM (≈ 3.51 µg/mL).

Q: And the IC50 (Cytochrome P450 2D6)?
A: Its IC50 is over 100 µM.

Q: What about the IC50 (Cytochrome P450 2C9) of the same compound?
A: The IC50 was 1.4 µM.

Q: And the IC50 (Cytochrome P450 2C19)?
A: Its IC50 is 2.3 µM.

Q: And the IC50 (Cytochrome P450 1A2)?
A: Its IC50 is 26 µM.

Q: What about the IC50 (Cytochrome P450 3A4) of the same compound?
A: The IC50 was over 100 µM.

Q: How did the MIC (Saccharomyces cerevisiae [1]) turn out when COc1cc(C(=O)N(CCC#N)C2CC(C)CC(C)(C)C2)cc(OC)c1OC (centres undefined) was run?
A: Its MIC is over 200 µM.

Q: With COc1ccc(NC(=S)N/N=C/c2ccc(N(C)CCC#N)cc2)cc1 as the compound, how does the MIC (Saccharomyces cerevisiae [1]) read?
A: The MIC was over 200 µM.

Q: With C=CCNc1ncnc2sc3c(c12)CCCC3 as the compound, how does the MIC (Saccharomyces cerevisiae [3]) read?
A: The MIC was 100 µM (≈ 24.5 µg/mL).

Q: And the MIC50 (Saccharomyces cerevisiae [3])?
A: Its MIC50 is 9.98 µM (≈ 2.45 µg/mL).

Q: What about the Activity (Saccharomyces cerevisiae [4]) of the same compound?
A: The Activity was “inactive”.

Q: What about the “growth inhibition (GI)” value (Saccharomyces cerevisiae [1]) of the same compound?
A: The value was “inactive”.

Q: What about the Activity (Saccharomyces cerevisiae [5]) of the same compound?
A: Its Activity is “inactive”.

Q: How did the MIC (Saccharomyces cerevisiae [1]) turn out when c1ccc(Cc2ccncc2)cc1 was run?
A: The MIC was over 200 µM.

Q: What about the MIC50 (Saccharomyces cerevisiae [1]) of the same compound?
A: Its MIC50 is 100 µM (≈ 16.9 µg/mL).

Q: Which MIC (Candida albicans [6]) does the source give for CN(C/C=C/C#CC(C)(C)C)Cc1cccc2ccccc12 [TERBINAFINE] here?
A: Its MIC is 439 µM (≈ 128 µg/mL).

Q: For N#CCN1CCN(c2nc3ccc(Cl)cc3s2)CC1, which MIC (Saccharomyces cerevisiae [1]) is on record?
A: The MIC was over 200 µM.

Q: What about the MIC50 (Saccharomyces cerevisiae [1]) of the same compound?
A: The MIC50 was 27 µM (≈ 7.91 µg/mL).

Q: Which MIC (Candida albicans [6]) does the source give for Clc1ccc(COC(Cn2ccnc2)c2ccc(Cl)cc2Cl)c(Cl)c1 (centres undefined) [MICONAZOLE] here?
A: Its MIC is 76.9 µM (≈ 32 µg/mL).

Q: For Cc1n[nH]c(=O)c2noc(/C=C/c3ccsc3)c12, which MIC (Saccharomyces cerevisiae [1]) is on record?
A: The MIC was over 200 µM.

Q: COc1ccc(-c2sc(/N=C/c3ccc(N(C)CCC#N)cc3)c(C#N)c2C)cc1OC was tested. Which MIC (Candida albicans [2]) did it give?
A: The MIC was 12 µM (≈ 5.33 µg/mL).

Q: What about the IC50 (Cytochrome P450 2D6) of the same compound?
A: Its IC50 is 23.3 µM.

Q: And the inhibition at 100 µM (Saccharomyces cerevisiae [7])?
A: Its inhibition at 100 µM is 95%.

Q: And the Activity (Saccharomyces cerevisiae [8])?
A: The Activity was “Active”.

Q: And the IC50 (Cytochrome P450 2C9)?
A: The IC50 was 1.2 µM.

Q: What about the Activity (Saccharomyces cerevisiae [9]) of the same compound?
A: The Activity was “inactive”.

Q: What about the IC50 (Cytochrome P450 2C19) of the same compound?
A: The IC50 was 1.1 µM.

Q: And the MIC (Saccharomyces cerevisiae [1])?
A: The MIC was 118 µM (≈ 52.5 µg/mL).

Q: What about the MIC50 (Saccharomyces cerevisiae [1]) of the same compound?
A: Its MIC50 is 2.7 µM (≈ 1.2 µg/mL).

Q: And the IC50 (Cytochrome P450 1A2)?
A: Its IC50 is 11.9 µM.

Q: And the IC50 (Cytochrome P450 3A4)?
A: Its IC50 is 33.2 µM.

Q: With Cc1nc(SCc2c(F)cccc2Cl)c(C#N)c(C)c1Cc1c(F)cccc1Cl as the compound, how does the MIC (Saccharomyces cerevisiae [1]) read?
A: The MIC was over 200 µM.

Q: With O=C(CC(Sc1ccc2ccccc2c1)c1ccsc1)c1ccc(Cl)cc1 (centres undefined) as the compound, how does the MIC (Saccharomyces cerevisiae [1]) read?
A: The MIC was over 200 µM.

Q: Cc1ccc(C(=O)N(C)Cc2ccco2)c(C2CCN(C(=O)c3cc4c(C)nn(C)c4s3)CC2)n1 was tested. Which MIC (Saccharomyces cerevisiae [1]) did it give?
A: Its MIC is over 200 µM.

Q: For Cc1c(-c2ccccc2)sc(/N=C/c2cc(Cl)cc(Cl)c2O)c1C#N, which MIC (Candida albicans [2]) is on record?
A: The MIC was 40 µM (≈ 15.5 µg/mL).

Q: Cc1ccc(C(=O)N(C)Cc2ccco2)c(C2CCN(C(=O)/C=C/c3cccs3)CC2)n1 was tested. Which MIC (Saccharomyces cerevisiae [1]) did it give?
A: The MIC was over 200 µM.

Q: For Cc1ccc(C(=O)N(C)Cc2ccco2)c(C2CCN(C(=O)c3cc(C)c(C)o3)CC2)n1, which MIC (Saccharomyces cerevisiae [1]) is on record?
A: The MIC was over 200 µM.

Q: What does the source list for Clc1ccc(Cc2ccncc2)cc1?
A: MIC (Saccharomyces cerevisiae [1]): 150 µM (≈ 30.6 µg/mL); MIC50 (Saccharomyces cerevisiae [1]): 18 µM (≈ 3.67 µg/mL)

Q: With COC(C)(C)CCSc1nc2ccc(NC(=O)CCCC(=O)NCc3ccco3)cc2s1 as the compound, how does the MIC (Saccharomyces cerevisiae [1]) read?
A: Its MIC is over 200 µM.

Q: How did the MIC (Saccharomyces cerevisiae [1]) turn out when COC(=O)c1cscc1NC(=O)CC(CC(=O)O)c1ccccc1 (centres undefined) was run?
A: The MIC was over 200 µM.

Q: How did the MIC (Saccharomyces cerevisiae [1]) turn out when CC1=C(C#N)C(c2sc3ccccc3c2C)C2=C(CCCC2=O)N1 (centres undefined) was run?
A: The MIC was over 250 µM.

Q: What about the MIC50 (Saccharomyces cerevisiae [1]) of the same compound?
A: The MIC50 was 118 µM (≈ 39.5 µg/mL).

Q: Which “growth inhibition (GI)” value (Saccharomyces cerevisiae [10]) does the source give for CC(=O)N1CCN(c2ccc(OCC3COC(Cn4ccnc4)(c4ccc(Cl)cc4Cl)O3)cc2)CC1 (centres undefined) here?
A: Its value is “Active”.

Q: And the Activity (Saccharomyces cerevisiae [4])?
A: The Activity was “inactive”.

Q: What about the “growth inhibition (GI)” value (Saccharomyces cerevisiae [11]) of the same compound?
A: The value was “Active”.

Q: What about the Activity (Saccharomyces cerevisiae [5]) of the same compound?
A: The Activity was “inactive”.

Q: For CN(CCC#N)c1ccc(/C=C2\CC/C(=C\c3ccc(N(C)CCC#N)cc3)C2=O)cc1, which MIC (Saccharomyces cerevisiae [1]) is on record?
A: Its MIC is over 200 µM.

Q: Which MIC50 (Saccharomyces cerevisiae [1]) does the source give for FC(F)(F)Oc1ccc(C2c3ccsc3CCN2Cc2ccc3c(c2)CCO3)cc1 (centres undefined) here?
A: Its MIC50 is 120 µM (≈ 51.8 µg/mL).

Q: Which MIC (Candida albicans [6]) does the source give for OC(Cn1cncn1)(Cn1cncn1)c1ccc(F)cc1F [FLUCONAZOLE] here?
A: The MIC was 104 µM (≈ 32 µg/mL).

Q: With CCCN(CCC)S(=O)(=O)c1ccc(C(=O)N/N=C/c2ccc(N(C)CCC#N)cc2)cc1 as the compound, how does the MIC (Saccharomyces cerevisiae [1]) read?
A: The MIC was over 200 µM.

From ChEMBL document CHEMBL1926617, “Antifungal activities of novel non-azole molecules against S. cerevisiae and C. albicans” (Eur J Med Chem, 2012)
